Assay: wn = mass fraction of the nth substance listed
Details: 101.3 kPa, Liquid, Vibrating tube method

NCCCO [3-amino-1-propanol] + O
mass density [kg/m3]
Details	w1 = 0.1	w1 = 0.2	w1 = 0.3	w1 = 0.41	w1 = 0.51	w1 = 0.61	w1 = 0.7	w1 = 0.8	w1 = 0.91	w1 = 1
293.15 K	998.7	1002.2	1005.9	1008.8	1011.3	1015.4	1014.9	1009.8	1001.4	987.5
298.15 K	997.3	1000.4	1003.7	1006	1008.2	1011.8	1011.2	1005.9	997.5	983.6
303.15 K	995.7	998.4	1001.3	1003.1	1005	1008	1007.3	1002	993.5	979.6
308.15 K	993.9	996.3	998.8	1000.1	1001.8	1003.9	1003.4	998	989.5	975.5
313.15 K	991.9	994	996.2	997.1	998.5	1001	999.2	994	985.5	971.5
318.15 K	989.7	991.6	993.3	993.9	995	997.2	995.6	990	981.5	967.5
323.15 K	987.3	989	990.6	990.6	991.5	993.3	991.7	986	977.5	963.4
328.15 K	984.8	986.3	987.6	987.9	988	989.5	987.8	981.9	973.4	959.3
333.15 K	983	983.5	984.5	984.5	984.4	985.6	983.9	977.7	969.3	955.8
338.15 K	980.3	980.5	981.3	981.9	980.8	981.6	979.9	973.2	965.2	951.7
343.15 K	977.5	977.5	978	978.3	977.5	977.6	975.8	969.1	961	947.6
348.15 K	974.5	974.3	974.6	974.7	972.9	973.6	971.6	965.1	956.9	943.5
353.15 K	971.2	971	971.1	971.1	970.8	969.5	967.4	961.2	952.7	939.3

Reference: the NIST ThermoML archive (doi:10.1021/acs.jced.5b00412)
